These are literature values, as cited in patent US20060084141A1, “Biosynthetic gene cluster for the maytansinoid antitumor agent ansamitocin” (priority 2001, published 2006).

Series [1] has as its system various murine leukemia cell lines. As to conditions: in vitro.
Series [2] relates to human carcinoma and leukemia cell lines. As to conditions: in vitro.
The subject of series [3] is patients with different types of tumors. As to conditions: phase II trials.
Series [4] concerns human cancer patients.

In the case of `COc1cc2cc(c1Cl)N(C)C(=O)C[C@H](OC(=O)[C@H](C)N(C)C(C)=O)[C@]1(C)O[C@H]1[C@H](C)[C@@H]1C[C@@](O)(NC(=O)O1)[C@H](OC)/C=C/C=C(\C)C2` [Maytansine], the dose inhibiting growth in series [1] was 10^−3 to 10^−7 μg/ml. Further, the dose inhibiting growth in series [2] is recorded as 10^−3 to 10^−7 μg/ml. Further, in series [3], the response rates entry is recorded as “Insignificant response rates”. The tumor response entry in series [4] (phase I (early) trials) is reported as “A few partial responses”. For the same molecule, in series [4] (phase I trials), the dose limiting toxicity entry was “dose limiting gastrointestinal toxicity and neurotoxicity”; the myelosuppression result is on record as “modest levels of mylosuppression”.
